The test system of test [1] is HT-29. Briefly: Antiproliferative activity against human HT-29 cells assessed as inhibition of cell growth under hypoxia condition by SRB assay. The class given is functional, cell-based. Background: In SRB staining, fixed cells bind dye roughly in proportion to their protein.
Test [2] relates to SCC-7. Nature of the test: Anticlonogenic activity against mouse SCC-7 cells assessed as inhibition of colony formation under aerobic condition by clonogenic survival assay. The class given is functional.
The subject of test [3] is HT-29. Nature of the test: Antiproliferative activity against human HT-29 cells assessed as inhibition of cell growth under normoxia condition by SRB assay. The class given is functional, cell-based.
The test system of test [4] is SCC-7. Nature of the test: Anticlonogenic activity against mouse SCC-7 cells assessed as inhibition of colony formation under hypoxic condition by clonogenic survival assay. The class given is functional.
Test [5] concerns the target Vascular endothelial growth factor receptor 2 (Homo sapiens, UniProt P35968). Nature of the test: Inhibition of VEGFR-2 (unknown origin).
For test [6], the target named is Epidermal growth factor receptor (Homo sapiens, UniProt P00533). Briefly: Inhibition of EGFR (unknown origin).
Epidermal growth factor receptor, sequence (P00533 whole entry): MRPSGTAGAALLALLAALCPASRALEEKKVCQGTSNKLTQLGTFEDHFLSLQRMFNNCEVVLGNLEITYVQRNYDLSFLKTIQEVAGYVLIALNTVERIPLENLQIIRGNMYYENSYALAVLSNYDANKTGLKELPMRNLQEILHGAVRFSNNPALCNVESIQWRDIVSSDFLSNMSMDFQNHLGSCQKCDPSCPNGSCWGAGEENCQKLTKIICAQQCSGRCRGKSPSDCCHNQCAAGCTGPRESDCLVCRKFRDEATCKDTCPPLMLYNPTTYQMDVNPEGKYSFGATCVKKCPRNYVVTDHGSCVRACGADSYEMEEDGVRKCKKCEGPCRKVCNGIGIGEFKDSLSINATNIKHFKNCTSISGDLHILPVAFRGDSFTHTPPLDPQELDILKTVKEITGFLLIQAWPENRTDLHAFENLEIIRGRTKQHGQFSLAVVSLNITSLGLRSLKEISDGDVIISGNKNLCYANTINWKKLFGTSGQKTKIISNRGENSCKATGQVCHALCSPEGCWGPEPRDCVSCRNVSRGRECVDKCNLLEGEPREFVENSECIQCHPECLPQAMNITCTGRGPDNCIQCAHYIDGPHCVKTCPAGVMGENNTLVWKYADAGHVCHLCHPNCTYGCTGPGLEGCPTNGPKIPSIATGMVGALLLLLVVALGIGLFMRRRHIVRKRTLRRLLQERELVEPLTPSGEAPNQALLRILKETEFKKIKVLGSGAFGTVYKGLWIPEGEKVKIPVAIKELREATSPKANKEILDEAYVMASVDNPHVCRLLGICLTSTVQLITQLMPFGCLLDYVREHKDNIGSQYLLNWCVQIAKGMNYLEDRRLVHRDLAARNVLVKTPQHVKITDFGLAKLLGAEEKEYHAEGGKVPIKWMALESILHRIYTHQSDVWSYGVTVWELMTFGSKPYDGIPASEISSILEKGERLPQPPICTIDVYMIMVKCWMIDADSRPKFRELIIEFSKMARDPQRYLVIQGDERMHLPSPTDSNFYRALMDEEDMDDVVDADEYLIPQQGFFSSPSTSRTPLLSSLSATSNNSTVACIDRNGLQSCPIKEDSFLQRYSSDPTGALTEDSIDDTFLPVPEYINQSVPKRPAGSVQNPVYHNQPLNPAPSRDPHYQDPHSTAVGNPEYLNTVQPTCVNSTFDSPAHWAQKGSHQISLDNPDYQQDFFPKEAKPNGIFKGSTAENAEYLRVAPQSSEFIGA
Test [7] relates to OVCAR-4. Nature of the test: Antiproliferative activity against human OVCAR-4 cells assessed as cell growth inhibition. The class given is functional, cell-based.
Test [8] has as its target T1, Tyrosine-protein kinase SYK (Homo sapiens, UniProt P43405). Briefly: Inhibition of human SYK using 5-Fluo-Ahx-GAPDYENLQELNKK-Amid as substrate in presence of ATP by microfluidic mobility shift assay.
The target of test [9] is T1, Tyrosine-protein kinase SYK. Briefly: Inhibition of SYK in human Ramos cells assessed as reduction in anti IgM-induced phosphorylation of BLNK by flow cytometry assay. The class given is cell-based. On the technique in general: A flow cytometer gives signals particle by particle.
For test [10], the system named is HT-29. Briefly: Potency index, ratio of tirapazamine IC50 to compound IC50 for antiproliferative activity against human HT-29 cells. The class given is functional.
The test system of test [11] is HT-29. Nature of the test: Antiproliferative activity against human HT-29 cells assessed as inhibition of cell growth by SRB assay. The class given is functional, cell-based.
Test [12] deals with Cyclin-dependent kinase 2/cyclin E1 (Homo sapiens, UniProt P24941). Briefly: Inhibition of CDK2/cyclin E1 (unknown origin) expressed in Sf9 cells.
The test system of test [13] is HCT-116. Briefly: Antiproliferative activity against human HCT-116 cells assessed as inhibition of cell growth. The class given is functional, cell-based.
The subject of test [14] is MCF7. Briefly: Antiproliferative activity against human MCF7 cells assessed as inhibition of cell growth. The class given is functional, cell-based.
For test [15], the system named is HepG2. Nature of the test: Antiproliferative activity against human HepG2 cells assessed as cell growth inhibition. The class given is functional, cell-based.
Test [16] deals with Cyclin-dependent kinase 2/cyclin E (Homo sapiens, UniProt P24941). Nature of the test: Inhibition of CDK2/cyclin E (unknown origin). The class given is protein-complex assay.

Vascular endothelial growth factor receptor 2, sequence (P35968 whole entry): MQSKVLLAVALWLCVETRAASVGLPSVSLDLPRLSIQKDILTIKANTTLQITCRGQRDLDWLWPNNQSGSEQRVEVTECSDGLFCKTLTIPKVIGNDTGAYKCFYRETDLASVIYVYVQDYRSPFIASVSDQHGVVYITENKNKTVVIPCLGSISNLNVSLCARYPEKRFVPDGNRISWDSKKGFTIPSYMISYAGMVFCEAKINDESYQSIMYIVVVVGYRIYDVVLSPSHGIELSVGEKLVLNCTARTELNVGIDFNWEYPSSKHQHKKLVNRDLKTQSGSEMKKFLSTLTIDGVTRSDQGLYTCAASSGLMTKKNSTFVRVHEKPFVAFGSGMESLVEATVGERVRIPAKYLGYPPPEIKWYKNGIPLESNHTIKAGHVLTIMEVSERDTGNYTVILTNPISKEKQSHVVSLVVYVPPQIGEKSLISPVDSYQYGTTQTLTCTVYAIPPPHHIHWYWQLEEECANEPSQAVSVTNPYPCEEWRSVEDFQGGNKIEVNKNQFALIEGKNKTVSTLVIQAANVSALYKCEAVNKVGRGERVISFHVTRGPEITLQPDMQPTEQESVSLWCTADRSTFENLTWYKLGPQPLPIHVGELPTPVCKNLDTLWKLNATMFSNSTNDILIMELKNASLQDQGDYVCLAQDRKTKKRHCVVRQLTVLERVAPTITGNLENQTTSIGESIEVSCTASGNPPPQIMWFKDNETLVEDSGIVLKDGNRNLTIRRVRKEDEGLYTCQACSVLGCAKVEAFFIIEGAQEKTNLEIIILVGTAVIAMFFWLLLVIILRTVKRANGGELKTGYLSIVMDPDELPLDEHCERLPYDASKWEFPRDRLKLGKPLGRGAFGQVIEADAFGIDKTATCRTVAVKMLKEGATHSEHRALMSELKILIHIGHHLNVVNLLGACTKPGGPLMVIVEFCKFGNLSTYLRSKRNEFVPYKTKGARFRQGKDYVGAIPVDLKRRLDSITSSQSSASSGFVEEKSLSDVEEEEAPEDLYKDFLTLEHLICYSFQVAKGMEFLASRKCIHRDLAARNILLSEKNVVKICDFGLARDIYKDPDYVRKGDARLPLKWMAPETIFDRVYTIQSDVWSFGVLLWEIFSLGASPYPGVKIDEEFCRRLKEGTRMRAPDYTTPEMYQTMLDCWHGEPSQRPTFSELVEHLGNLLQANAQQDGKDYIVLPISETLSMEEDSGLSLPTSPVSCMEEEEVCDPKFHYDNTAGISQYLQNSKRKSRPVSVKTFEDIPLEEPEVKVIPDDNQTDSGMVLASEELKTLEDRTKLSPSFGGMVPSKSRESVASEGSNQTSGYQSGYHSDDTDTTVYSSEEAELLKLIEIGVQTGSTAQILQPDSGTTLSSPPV

The term IC50 denotes the concentration at which inhibition is half-maximal. As for `O=C(NCCNCCNc1n[n+]([O-])c2ccccc2[n+]1[O-])c1cccc2cc3ccccc3nc12`, the IC50 in test [1] turned out to be 0.016 µM; in test [3] it was 0.6 µM. The C10 was determined as 6.4 µM in [2] and 0.18 µM in test [4]. Regarding `O=C(NCCOCCNc1n[n+]([O-])c2ccccc2[n+]1[O-])c1cccc2cc3ccccc3nc12`, the IC50 in test [1] amounted to 0.016 µM; in test [3] it was 0.6 µM. The C10 in [2] worked out at 6.4 µM; in test [4] it was 0.18 µM. For `CN(CCNC(=O)c1cccc2cc3ccccc3nc12)CCNc1n[n+]([O-])c2ccccc2[n+]1[O-]`, in that order: 0.016 µM, 0.6 µM, 6.4 µM and 0.18 µM. `Cc1cc2c(Nc3ccc(C)c(O)c3)ncnn2c1`: the 50% inhibitory concentration (IC50) is 0.654 µM in test [5] and 0.405 µM in test [6].

For `Cc1ccc(Nc2ncnn3cccc23)cc1O`, the figures for the IC50 in test [5] and in test [6] were 0.51 µM and 1.44 µM, respectively. For `Cc1ccc(Nc2ncnn3cc(C)c(C)c23)cc1O`, in that order: 0.2 µM and 0.023 µM.

Compound `Cc1ccc(Nc2ncnn3c(C)ccc23)cc1O` returned an IC50 in test [5] of 29.4 µM.

`Cc1ccc(Nc2ncnn3ccc(C)c23)cc1O`: the IC50 came to 0.346 µM in test [5] and 0.066 µM in test [6]. As for `Cc1c(-c2ccccc2)c(C#N)c2nnc(C(N)=O)c(N)n12`, in [7], the 50% inhibitory concentration (IC50) came out at 2.77 µM.

As to `CCOC(=O)c1nnc2c(C#N)c(-c3ccccc3)c(C)n2c1N`, in [7], the IC50 stood at 2.77 µM.

`NC(=O)c1nnc(N[C@@H]2CCCC[C@@H]2N)nc1Nc1cccc2[nH]ccc12`: the concentration for half-maximal inhibition (IC50) in test [8] is 0.0008 µM. As to `NC(=O)c1nnc(N[C@@H]2CCCC[C@@H]2N)nc1Nc1cccc2c(Cl)c[nH]c12`, the values for the concentration for half-maximal inhibition (IC50) in [8] and in [9] were 0.0008 µM and 0.014 µM, respectively.

`NC(=O)c1nnc(N[C@@H]2CCCC[C@@H]2N)nc1Nc1cc(F)cc2cc[nH]c12`: the values for the IC50 in test [8] and in test [9] were 0.0008 µM and 0.014 µM, respectively.

As for `Cc1c[nH]c2c(Nc3nc(N[C@@H]4CCCC[C@@H]4N)nnc3C(N)=O)cccc12`, the IC50 in test [8] is 0.0008 µM; in [9], 0.014 µM. Turning to `Cn1ncc2c(Nc3nc(N[C@@H]4CCCC[C@@H]4N)nnc3C(N)=O)cccc21`, the results for the IC50 in [8] and in test [9] were 0.0008 µM and 0.014 µM, respectively. For `NC(=O)c1nnc(N[C@@H]2CCCC[C@@H]2N)nc1Nc1cccc2[nH]ncc12`, in that order: 0.0008 µM and 0.014 µM. Turning to `Cc1c[nH]c2c(Nc3nc(N[C@@H]4CCCC[C@@H]4N)nnc3C(N)=O)cc(F)cc12`, in test [9], the IC50 stood at 0.014 µM.

For the compound `O=C(NCCCNCCCNc1n[n+]([O-])c2ccccc2[n+]1[O-])c1cccc2cc3ccccc3nc12`, the results for the half-maximal inhibitory concentration (IC50) in [1] and in [3] were 0.016 µM and 0.6 µM, respectively. Besides, the C10 worked out at 6.4 µM in test [2] and 0.18 µM in test [4].

As to `Nc1nc2ccccc2[n+]([O-])n1`, the “Ratio IC50” value in [10] is reported as 2. The concentration for half-maximal inhibition (IC50) in test [11] was over 0.5 µM. In test [12], `Oc1ccc(-n2nc(-c3cc(O)c(O)c(O)c3)c3nc(-c4ccc(Cl)cc4)nnc32)cc1` showed an IC50 of over 20 µM. As to `O=c1c(/C=C/c2cccs2)nnc(S)n1NC(=S)Nc1ccccc1`, the IC50 in test [13], in [14] and in [15] was 8.79 µM throughout. For `O=c1c(/C=C/c2cccs2)nnc(S)n1/N=C/c1cccs1`, the IC50 in test [13], in test [14] and in test [15] was 8.79 µM in each case. In the case of `Oc1cc(-c2nn(-c3ccc(Cl)cc3)c3nnc(-c4ccc(Cl)cc4)nc23)cc(O)c1O`, in [12], the IC50 was over 20 µM. The same measure, in the same setting: to `Oc1ccc(-n2nc(-c3cc(O)c(O)c(O)c3)c3nc(-c4ccccc4)nnc32)cc1` belongs 14.1 µM.

Turning to `CCOC(=O)c1nnc2c(C#N)c(C)c(-c3ccccc3)n2c1N`, the IC50 in [7] came out at 2.77 µM.

With `Nn1c(S)nnc(/C=C/c2cccs2)c1=O`, the IC50 in [13], in [14] and in [15] was 8.79 µM in each case.

In the case of `O=C1CN2C(=O)/C(=C/c3ccc([N+](=O)[O-])cc3)N=C(c3ccccc3)N2C(=S)N1`, the IC50 in test [15] was found to be 2.67 µM.

On to `N#CCNc1nc2ccccc2[n+]([O-])n1`, for which the “Ratio IC50” value in [10] is 1.9. For the same compound, in test [11], the half-inhibitory concentration (IC50) was over 0.3 µM. For `Oc1ccccc1-n1nc(-c2cc(O)c(O)c(O)c2)c2nc(-c3ccc(Cl)cc3)nnc21`, the concentration for half-maximal inhibition (IC50) in [12] was over 20 µM. `O=c1c(/C=C/c2cccs2)nnc(S)n1/N=C/c1ccccc1`: the IC50 in [13], in test [14] and in test [15] was 8.79 µM throughout. `CCc1nc2ccccc2[n+]([O-])n1`: in [10], the “Ratio IC50” value amounted to 1.3. In addition, the IC50 in [11] was over 3 µM. On the same counts, the results for `CN(C)CCNc1nc2ccccc2[n+]([O-])n1` are 3.9 and over 1 µM. Take `Cc1c(C#N)c2nnc(C#N)c(N)n2c1-c1ccccc1`: the IC50 in test [7] was 2.77 µM. Take `CC(=O)c1nnc2c(C#N)c(C)c(-c3ccccc3)n2c1C`: the IC50 in [7] is 2.77 µM. For the compound `Cc1n[nH]c(=S)n(-c2nnc(-c3ccc(F)cc3)c(-c3ccc(F)cc3)n2)c1=O`, in [16], the IC50 was 9.75 µM.

With `Nc1ccc(F)cc1C1=NNC(Nc2ccc(F)cc2)NC1=O` (stereo not drawn), the IC50 in test [16] was determined as 3.8 µM. Same read-out and setting: to `CNc1ccc(F)cc1C1=NNC(SC)NC1=O` (stereo not drawn) belongs 5 µM. Take `CN(C)CCCNc1nc2ccccc2[n+]([O-])n1`: in test [10], the “Ratio IC50” value is listed as 1.2. Further, in test [11], the IC50 worked out at 0.83 µM. On the same counts, the results for `COc1nc2ccccc2[n+]([O-])n1` are 3.3 and over 0.3 µM. On the same counts, the results for `CNCCNc1nc2ccccc2[n+]([O-])n1` are 6.11 and 2.3 µM. In turn, `CSC1NN=C(c2cc(F)ccc2NC(=O)c2ccc(F)cc2)C(=O)N1` (stereo not drawn) showed an IC50 in test [16] of 3.8 µM. Consider `CC(=O)Nn1c(S)nnc(/C=C/c2cccs2)c1=O`, for which the IC50 in test [13], in test [14] and in test [15] was 8.79 µM each time. On to `[O-][n+]1nc(CCO)nc2ccccc21`, for which the “Ratio IC50” value in test [10] turned out to be 1.2. Moreover, the IC50 in test [11] was over 3 µM. Regarding `Oc1cccc(-n2nc(-c3cc(O)c(O)c(O)c3)c3nc(-c4ccccc4)nnc32)c1`, in test [12], the half-maximal inhibitory concentration (IC50) was 5.2 µM. Consider `O=C1NC(SSC2NN=C(c3cc(F)ccc3NC(=O)c3ccc(F)cc3)C(=O)N2)NN=C1c1cc(F)ccc1NC(=O)c1ccc(F)cc1` (stereo not drawn), for which half-maximal inhibition in test [16] (IC50) was put at 3.8 µM.

For the compound `Cc1c(-c2ccccc2)c(C#N)c2nnc(C#N)c(N)n12`, in test [7], the IC50 came to 2.77 µM. As to `Nc1ccc(F)cc1C1=NNC(S)NC1=O` (stereo not drawn), the IC50 in [16] is 3.8 µM.

In test [16], `NNC(=S)Nc1nnc(-c2ccc(F)cc2)c(-c2ccc(F)cc2)n1` showed an IC50 of 11.2 µM. `Oc1ccccc1-n1nc(-c2cc(O)c(O)c(O)c2)c2nc(-c3ccccc3)nnc21`: inhibition in test [12] was half-maximal at 15.1 µM (IC50). In the case of `Fc1ccc(-c2nnc(-n3c(=S)[nH][nH]c3=S)nc2-c2ccc(F)cc2)cc1`, inhibition in [16] was half-maximal at 9.99 µM (IC50).

Consider `Fc1ccc(-c2nnc(-n3cn[nH]c3=S)nc2-c2ccc(F)cc2)cc1`, for which the IC50 in [16] is 10.9 µM. With `COc1cc(-c2nnc3c(n2)c(-c2cc(O)c(O)c(O)c2)nn3-c2cc(OC)c(OC)c(OC)c2)cc(OC)c1OC`, the IC50 in test [12] came out at 4.5 µM. `N#Cc1c[nH]c2c(Nc3nc(N[C@@H]4CCCCC4N)nnc3C(N)=O)cccc12` (single isomer, unassigned): the results for the IC50 in test [8] and in [9] were 0.0008 µM and 0.014 µM, respectively.

(Values after ChEMBL document CHEMBL5260813, “An overview on the recent developments of 1,2,4-triazine derivatives as anticancer compounds” (Eur J Med Chem, 2017).)
